Data on one substance can be found in patent publication US20220071939A1, “COMPOUNDS AND METHODS FOR THE TREATMENT OF POLYCYSTIC KIDNEY DISEASE (PKD)” (Resilio Therapeutics, LLC, priority 2018, published 2022).

In data set [1] the test system is cysts formed from ADPKD donor cells in 3D cultures. The data set can be described thus: 3D cyst formation assay (cyst number and cyst size by light microscopy). As to conditions: 3D culture. The format is cell-based, human. How it is done: (§1) Studies were performed on DFMO, the metabolic product of DFMO-prodrugs, in primary cell cultures of 2 dimensional (2D) cellular toxicity assays, 3 dimensional (3D) cyst formation assays and 3D tubulogenesis assays. DFMO was less than 10% toxic (90% viable) to human renal mixed epithelial cells in 2D cultures from Autosomal Dominant Polycystic Kidney Disease (ADPKD) donors up to 10 mM DFMO concentration as measured using a Cell Titer Go kit (FIG. 1). In the 3D cyst cultures, a population of mixed cells from a surgically resected cyst from a donor ADPKD kidney is combined with human kidney fibroblasts to grow cysts in a proprietary media (Discovery BioMed, Inc) that contains conditioned media from kidney fibroblasts and a Biogel matrix (DiscoveryBioMed). Using light microscopy to count cysts, the number of cysts formed in 3D cultures decreased in a dose-dependent fashion to 50% of controls at 10 mM DFMO (FIG. 2). Photomicrographs of cysts formed from ADPKD donor cells in 3D cultures show a time dependent change in cyst size.

Data set [2] has as its system normal human kidney (NHK) cells in 3D cultures. Kind of data set: 3D tubulogenesis assay. It is filed as cell-based. As to conditions: 10 mM DFMO. Here is the method: As a further proof of the potential utility of DFMO/DFMO-prodrugs in ADPKD patients, we also performed a tubulogenesis assay with normal human kidney cells in 3D cultures. Vehicle treated normal human kidney (NHK) cells form tubules by Day 3 in 3D cultures (FIG. 5) as do 10 mM DFMO-treated NHK cells, which also form tubules under the same conditions (FIG. 6).

In data set [3] the test system is human renal mixed epithelial cells in 2D cultures from Autosomal Dominant Polycystic Kidney Disease (ADPKD) donors. The data set can be described thus: 2D cellular toxicity assay (viability by ATP release, Cell TiterGlo kit). The format is cell-based. How it is done:
as §1, with “FIG. 1 is a plot of cell viability as a function of difluoromethyl omithine (DFMO) concentration, showing the viability of primary ADPKD cells in 2D culture as measured by ATP release using Cell TiterGlo kit. Studies” for “Studies”, “2).” for “2). Photomicrographs of cysts formed from ADPKD donor cells in 3D cultures show a time dependent change in cyst size.”

Setting [4] is: 2D culture, up to 10 mM DFMO, Cell Titer Glo (ATP release), FIG. 1.

Entries after “also recorded” stand apart in the source; their conditions may differ.

As usually defined, the cell viability is a per cent measure of how many cells are alive, often set against a control. Lower therefore signals more harm to the cells. In the case of difluoromethylornithine [DFMO], the “cyst size over time” value in data set [1] (10 mM DFMO, Day 0 to Day 4, FIG. 4) was “decreases with time; also recorded: slight increase on Day 1 followed by a steady decrease in cyst size by Day 4 when the cyst is smaller than on Day 0”. Also, the “number of cysts formed, relative to controls” value in data set [1] (10 mM DFMO, FIG. 2) is on record as 50 % of controls. In addition, in data set [1] (FIG. 2), the “number of cysts versus DFMO concentration” value is “decrease in a dose-dependent manner”. Moreover, in data set [2] (Day 3, FIG. 6), the “tubule formation” value is reported as “form tubules”. The “tubule numbers, maturation and elongation versus vehicle” value in data set [2] (visual comparison over time) was “appear similar”. Moreover, in data set [3] (setting [4]), the cell viability is 90% and the “toxicity to ADPKD cells” value is recorded as “less than 10%”. Further, in data set [3] (ADPKD cells, 2D cultures), the “cell killing in 2D cultures” value is “not killed”.
